# Test results published in patent US20170119835A1, “METHOD OF MAKING AN ADJUNCT TO […] OF RIBOSOMAL FUNCTIONS IN TUMOR CELLS AND PREVENT BODY WEIGHT LOSS DURING CYCLOP[…] THERAPY” (priority 2009, published 2017).
# System: S-180 cells
# Source text: Healthy adult male mice of BALB/c strain (hereinafter, “animals”) weighing between 18 to 22 g were selected randomly. The animals were divided in to six groups. Each animal was identified by color marking. Each cage was identified by a label according to the group. The label contained the name of experiment, number of mice in that cage, dose (mg/kg) and date of initiation and completion of experiment. The groups received treatments for a period of 15 days. On Day 16, samples of blood were withdrawn, under anesthesia, from orbital sinus of the animals. The samples were collected in tubes containing Heparin as an anticoagulant.
# Group I was treated as vehicle control and received vehicle (Corn oil) orally, in equal volume as in treatment groups. Group II received only tumor cells (1×10^6 cells) intra-peritoneally. Group III received tumor cells (1×10^6 cells) and cyclophosphamide (150 mg/kg body weight) intra-peritoneally. Group IV and Group V received Tumor cells and BV-3115 at 100 mg/kg body weight and 250 mg/kg body weight respectively.
# A group of male mice approximately 7-8 weeks old and weighing between 18-22 gm were used for this study. Animal room temperature & relative humidity were maintained at 22-30 C. and 30-70% respectively. All mice were given free access to purified water (Purified with Aquaguard) & standard pelleted laboratory animal feed. After acclimation period of 7 days, each animal was weighed and then the animals were randomly selected according to body weights and allocated to the different treatment groups, so that mean body weights of groups were not statistically different before starting the experiment. Tumor implantation with S-180 cells 1×10^6 cells I.P. to all groups except group I (sham control no tumor, no drug).
# [1] = all treatment groups, Day 16 blood
smiles,measurement,setting,value
O=P1(N(CCCl)CCCl)NCCCO1 (stereo not drawn) [cyclophosphamide],mortality,"BALB/c mice, 15 days, cyclophosphamide 150 mg/kg i.p., BV-3115 100 and 250 mg/kg, combination with BV-3115 100 mg/kg",No mortality
same,body weight compared to Group I,"Group III, cyclophosphamide 150 mg/kg i.p., P<0.05","normal weight gain till Day 10, thereafter sudden decrease in weights"
same,body weight on day 15,"S-180 cells 1×106 I.P., vs sham control / tumor group",reduced the body weight alarmingly lower than sham control
same,platelets compared with Group I (vehicle control),all treatment groups,comparable to Group I
same,body weight compared to Group II (tumor cells only),"all treatment groups (III, IV, V and VI)",significant decrease in body weight
same,RBC count,[1],increased in varying degrees
same,hemoglobin content,[1],increased in varying degrees
same,white blood cells compared with Group II,"group III (cyclophosphamide) and VI (combination), P<0.05",statistically significant decrease in white blood cells
same,clinical signs,"other groups: cyclophosphamide 150 mg/kg, BV-3115 100 mg/kg, combination",No clinically abnormal signs
